Common to all, as to experiment: relative viability (nuclei count vs DMSO), 5 days (fraction); higher = more cells survive
Compound in the assay “Zebularine + Alpelisib”: O=c1ncccn1[C@@H]1O[C@H](CO)[C@@H](O)[C@H]1O [Zebularine] + Cc1nc(NC(=O)N2CCC[C@H]2C(N)=O)sc1-c1ccnc(C(C)(C)C(F)(F)F)c1 [Alpelisib] (partner 2 µM)
In short, it runs like this: (§1)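 One day after seeding in 1536-well plates, lung cancer cell lines were dosed by pin tool. Dosing was either single-drug or a fixed anchor-drug dose plus five library-drug doses (not always all listed) in √10 steps. After 5 days, nuclei were stained in one fix-and-stain step and counted on 4× images, and relative viability is the nuclei count of treated wells over that of vehicle wells, given as the median of duplicate plates.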

Compound in the assay “Zebularine + Lapatinib”: O=c1ncccn1[C@@H]1O[C@H](CO)[C@@H](O)[C@H]1O [Zebularine] + CS(=O)(=O)CCNCc1ccc(-c2ccc3ncnc(Nc4ccc(OCc5cccc(F)c5)c(Cl)c4)c3c2)o1 [Lapatinib] (partner 2 µM)
Summed up: as §1

Compound in the assay “BI-D1870 + Decitabine”: CC(C)CCN1c2nc(Nc3cc(F)c(O)c(F)c3)ncc2N(C)C(=O)C1C [BI-D1870] + Nc1ncn([C@H]2C[C@H](O)[C@@H](CO)O2)c(=O)n1 [Decitabine] (partner 2 µM)
Summed up:
as §1

Compound in the assay “BI-D1870 + Vorinostat”: CC(C)CCN1c2nc(Nc3cc(F)c(O)c(F)c3)ncc2N(C)C(=O)C1C [BI-D1870] + O=C(CCCCCCC(=O)Nc1ccccc1)NO [Vorinostat] (partner 1 µM)
In short, it runs like this:
as §1

On to HCC-15, for which the relative viability with Zebularine + Alpelisib (first compound 1 µM) was found to be 1.01; with Zebularine + Alpelisib (first compound 3.162 µM) it was 0.887; with Zebularine + Alpelisib (first compound 10 µM) it was 0.596; with Zebularine + Alpelisib (first compound 31.62 µM) it was 0.654; in the assay with Zebularine + Alpelisib (first compound 100 µM) it was 0.248; with Zebularine + Lapatinib (first compound 1 µM), 0.941. Moreover, the relative viability with Zebularine + Lapatinib (first compound 3.162 µM) amounted to 0.822; with Zebularine + Lapatinib (first compound 10 µM), 0.74; with Zebularine + Lapatinib (first compound 31.62 µM), 0.825; in the assay with Zebularine + Lapatinib (first compound 100 µM), 0.401; in the assay with BI-D1870 + Decitabine (first compound 0.04 µM) it was 0.674; with BI-D1870 + Decitabine (first compound 0.1265 µM), 0.623. The relative viability came out at 0.627 with BI-D1870 + Decitabine (first compound 0.4 µM); 0.72 with BI-D1870 + Decitabine (first compound 1.265 µM); 0.465 with BI-D1870 + Decitabine (first compound 4 µM); 0.81 in the assay with BI-D1870 + Vorinostat (first compound 0.04 µM); 0.782 with BI-D1870 + Vorinostat (first compound 0.1265 µM); 0.786 with BI-D1870 + Vorinostat (first compound 0.4 µM). Also, the relative viability was determined as 0.987 with BI-D1870 + Vorinostat (first compound 1.265 µM) and 0.678 in the assay with BI-D1870 + Vorinostat (first compound 4 µM).
Regarding HCC-44, the relative viability in the assay with Zebularine + Alpelisib (first compound 1 µM) was determined as 0.818; in the assay with Zebularine + Alpelisib (first compound 3.162 µM) it was 0.938; with Zebularine + Alpelisib (first compound 10 µM), 0.463; with Zebularine + Alpelisib (first compound 31.62 µM), 0.639; with Zebularine + Alpelisib (first compound 100 µM), 0.265; with Zebularine + Lapatinib (first compound 1 µM) it was 1.07. The relative viability stood at 1.07 with Zebularine + Lapatinib (first compound 3.162 µM); 0.566 with Zebularine + Lapatinib (first compound 10 µM); 0.951 with Zebularine + Lapatinib (first compound 31.62 µM); 0.454 with Zebularine + Lapatinib (first compound 100 µM); 0.987 with BI-D1870 + Decitabine (first compound 0.04 µM); 0.973 with BI-D1870 + Decitabine (first compound 0.1265 µM). Also, the relative viability with BI-D1870 + Decitabine (first compound 0.4 µM) came to 0.96; in the assay with BI-D1870 + Decitabine (first compound 1.265 µM), 1.03; with BI-D1870 + Decitabine (first compound 4 µM) it was 1.04; with BI-D1870 + Vorinostat (first compound 0.04 µM), 1.14; with BI-D1870 + Vorinostat (first compound 0.1265 µM), 1.07; with BI-D1870 + Vorinostat (first compound 0.4 µM), 1.16. The relative viability with BI-D1870 + Vorinostat (first compound 1.265 µM) and with BI-D1870 + Vorinostat (first compound 4 µM) was 1.14 throughout.
HCC-78: the relative viability with Zebularine + Alpelisib (first compound 1 µM) turned out to be 0.358; with Zebularine + Alpelisib (first compound 3.162 µM), 0.155; in the assay with Zebularine + Alpelisib (first compound 10 µM), 0.104; with Zebularine + Alpelisib (first compound 31.62 µM), 0.326; with Zebularine + Alpelisib (first compound 100 µM), 0.292; in the assay with Zebularine + Lapatinib (first compound 1 µM), 1.1. Besides, the relative viability with Zebularine + Lapatinib (first compound 3.162 µM) was determined as 0.43; with Zebularine + Lapatinib (first compound 10 µM), 0.871; with Zebularine + Lapatinib (first compound 31.62 µM), 0.729; in the assay with Zebularine + Lapatinib (first compound 100 µM) it was 0.181; with BI-D1870 + Decitabine (first compound 0.04 µM), 0.755; with BI-D1870 + Decitabine (first compound 0.1265 µM), 0.774. Further, the relative viability is 0.791 with BI-D1870 + Decitabine (first compound 0.4 µM); 0.727 in the assay with BI-D1870 + Decitabine (first compound 1.265 µM); 0.746 with BI-D1870 + Decitabine (first compound 4 µM); 0.438 in the assay with BI-D1870 + Vorinostat (first compound 0.04 µM); 0.408 with BI-D1870 + Vorinostat (first compound 0.1265 µM); 0.392 in the assay with BI-D1870 + Vorinostat (first compound 0.4 µM). For the same cell line, the relative viability amounted to 0.497 in the assay with BI-D1870 + Vorinostat (first compound 1.265 µM) and 0.381 with BI-D1870 + Vorinostat (first compound 4 µM).
Take HCC-366: the relative viability with Zebularine + Alpelisib (first compound 1 µM) came out at 0.409; with Zebularine + Alpelisib (first compound 3.162 µM), 0.434; in the assay with Zebularine + Alpelisib (first compound 10 µM), 0.161; in the assay with Zebularine + Alpelisib (first compound 31.62 µM) it was 0.509; in the assay with Zebularine + Alpelisib (first compound 100 µM), 0.182; in the assay with Zebularine + Lapatinib (first compound 1 µM), 1.22. Further, the relative viability amounted to 0.984 with Zebularine + Lapatinib (first compound 3.162 µM); 0.329 with Zebularine + Lapatinib (first compound 10 µM); 0.749 with Zebularine + Lapatinib (first compound 31.62 µM); 0.0986 in the assay with Zebularine + Lapatinib (first compound 100 µM); 0.337 in the assay with BI-D1870 + Decitabine (first compound 0.04 µM); 0.306 with BI-D1870 + Decitabine (first compound 0.1265 µM). The relative viability with BI-D1870 + Decitabine (first compound 0.4 µM) was found to be 0.322; with BI-D1870 + Decitabine (first compound 1.265 µM), 0.469; with BI-D1870 + Decitabine (first compound 4 µM), 0.414; in the assay with BI-D1870 + Vorinostat (first compound 0.04 µM) it was 0.502; in the assay with BI-D1870 + Vorinostat (first compound 0.1265 µM) it was 0.331; with BI-D1870 + Vorinostat (first compound 0.4 µM), 0.294. Besides, the results for the relative viability with BI-D1870 + Vorinostat (first compound 1.265 µM) and with BI-D1870 + Vorinostat (first compound 4 µM) were 0.316 and 0.1, respectively.
Consider HCC-827, for which the relative viability with Zebularine + Alpelisib (first compound 1 µM) is 1.02; with Zebularine + Alpelisib (first compound 3.162 µM), 1.11; with Zebularine + Alpelisib (first compound 10 µM), 0.84; in the assay with Zebularine + Alpelisib (first compound 31.62 µM), 0.673; with Zebularine + Alpelisib (first compound 100 µM), 0.305; with Zebularine + Lapatinib (first compound 1 µM), 0.209. Moreover, the relative viability in the assay with Zebularine + Lapatinib (first compound 3.162 µM) stood at 0.175; in the assay with Zebularine + Lapatinib (first compound 10 µM), 0.192; with Zebularine + Lapatinib (first compound 31.62 µM), 0.188; with Zebularine + Lapatinib (first compound 100 µM), 0.191; in the assay with BI-D1870 + Decitabine (first compound 0.04 µM), 0.333; in the assay with BI-D1870 + Decitabine (first compound 0.1265 µM), 0.322. Further, the relative viability with BI-D1870 + Decitabine (first compound 0.4 µM) was 0.306; in the assay with BI-D1870 + Decitabine (first compound 1.265 µM), 0.365; with BI-D1870 + Decitabine (first compound 4 µM), 0.402; in the assay with BI-D1870 + Vorinostat (first compound 0.04 µM) it was 0.771; with BI-D1870 + Vorinostat (first compound 0.1265 µM), 0.846; with BI-D1870 + Vorinostat (first compound 0.4 µM), 0.818. Besides, the relative viability in the assay with BI-D1870 + Vorinostat (first compound 1.265 µM) was found to be 0.988; in the assay with BI-D1870 + Vorinostat (first compound 4 µM), 0.765.
Take IA-LM: the relative viability was 0.768 with Zebularine + Alpelisib (first compound 1 µM); 0.584 with Zebularine + Alpelisib (first compound 3.162 µM); 0.494 in the assay with Zebularine + Alpelisib (first compound 10 µM); 1.13 with Zebularine + Alpelisib (first compound 31.62 µM); 0.996 with Zebularine + Alpelisib (first compound 100 µM); 0.908 in the assay with Zebularine + Lapatinib (first compound 1 µM). Moreover, the relative viability in the assay with Zebularine + Lapatinib (first compound 3.162 µM) was found to be 1.07; with Zebularine + Lapatinib (first compound 31.62 µM) it was 0.773; in the assay with Zebularine + Lapatinib (first compound 100 µM), 0.599; with BI-D1870 + Vorinostat (first compound 0.04 µM) it was 1.02; with BI-D1870 + Vorinostat (first compound 0.1265 µM), 0.927; in the assay with BI-D1870 + Vorinostat (first compound 0.4 µM) it was 0.913. Further, the relative viability came out at 1.08 with BI-D1870 + Vorinostat (first compound 1.265 µM) and 0.874 with BI-D1870 + Vorinostat (first compound 4 µM).
LCLC-103H: the relative viability stood at 1.08 with Zebularine + Alpelisib (first compound 1 µM); 0.945 with Zebularine + Alpelisib (first compound 3.162 µM); 0.95 in the assay with Zebularine + Alpelisib (first compound 10 µM); 0.904 in the assay with Zebularine + Alpelisib (first compound 31.62 µM); 0.761 in the assay with Zebularine + Alpelisib (first compound 100 µM); 0.706 with BI-D1870 + Decitabine (first compound 0.04 µM). Besides, the relative viability in the assay with BI-D1870 + Decitabine (first compound 0.1265 µM) was 0.588; with BI-D1870 + Decitabine (first compound 0.4 µM), 0.723; with BI-D1870 + Decitabine (first compound 1.265 µM) it was 0.804; with BI-D1870 + Decitabine (first compound 4 µM), 0.678; with BI-D1870 + Vorinostat (first compound 0.04 µM), 0.886; in the assay with BI-D1870 + Vorinostat (first compound 0.1265 µM), 0.719. Moreover, the relative viability with BI-D1870 + Vorinostat (first compound 0.4 µM) worked out at 0.786; with BI-D1870 + Vorinostat (first compound 1.265 µM), 0.755; with BI-D1870 + Vorinostat (first compound 4 µM), 0.535.

The values are drawn from the supplement of paper PMC10307832.
